Experiments:
[1] = Protonation constants by pH-potentiometric / UV–Vis spectrophotometric titration; format: physicochemical; details: pH 7.4, CL = 10^−5 M
Method: As concerns the metal chelation studies, potassium hydrogen phthalate (C8H5KO4, p.a.) was acquired from BDH, whereas dimethylsulfoxide (DMSO, dried, p.a.) and potassium chloride (KCl, p.a.) were supplied by Sigma-Aldrich. Aqueous solutions of metal ions were prepared starting from 1000 ppm standards (Titrisol, Sigma-Aldrich), to obtain solutions FeCl3 0.018 M and CuCl2 0.015 M. The metal content of solutions was evaluated by atomic absorption. Iron stock solution was prepared with an excess of acid chloride to avoid hydrolysis and its concentration in HCl was determined by the usual standard-addition method using 0.1M HCl (Titrisol). The 0.1M HCl solution, used in calibration of the glass electrode and in spectrophotometric titrations, was prepared from a Titrisol ampoule. […]
The spectrophotometric measurements were carried out in a 250–450 nm wavelength range at pH ca. 2.5–11.8. Under the stated experimental conditions, the pKw value (14.27) was determined and subsequently used in the computations. […] The metal hydrolysis model was determined under the defined experimental conditions (I = 0.1 M KCl, 20% w/w DMSO/H2O, T = 25.0 ± 0.1 °C) and the following values of stability constants were included in the fitting of experimental data towards the equilibrium models related to the Fe^3+/L and Cu^2+/L systems: log β (FeH-2) = −6.78, log β (FeH-3) = −10.78; log β (Cu2H-2) = −9.94. […]

[2] = Cu^2+ complexation, potentiometric / spectrophotometric titration; format: physicochemical; details: for log β (CumHhLl), species (1–12) / log β (CumHhLl), species (101): UV–Vis (1a, 1d); for pM (Cu^2+), pM = −log [M]: pH 7.4, CL/CM = 10, CM = 10^−6 M
Text: (§1) The chelating ability of FA and of selected compounds 1a and 1d was studied by using the same experimental techniques (potentiometry, UV–Vis spectrophotometry) and experimental medium used for the titration of the ligand alone (20% w/w DMSO/water).
(§2) Alterations in the deprotonation profiles of the ligand titration curves due to the presence of the metal ions are evident in Figure 2, since the curves for the M/L systems appear well below that of FA for a > −1 (M = Fe) or a > 0 (M = Cu). This evidence supports the formation of metal complexes with the deprotonated (L^−) and mono-protonated (HL) forms of the ligand, whose stability order (Fe > Cu) follows the expected trend. Equilibrium models obtained from the fitting analysis of the potentiometric curves (M = Fe, Cu) and the UV–Vis spectral data (M = Fe, Cu) are reported in Table 2.
(§3) Both compounds 1a and 1d have similar chelating capacities towards iron and copper, which are also analogous to those of FA.
(§4) As concerns the metal chelation studies, potassium hydrogen phthalate (C8H5KO4, p.a.) was acquired from BDH, whereas dimethylsulfoxide (DMSO, dried, p.a.) and potassium chloride (KCl, p.a.) were supplied by Sigma-Aldrich. Aqueous solutions of metal ions were prepared starting from 1000 ppm standards (Titrisol, Sigma-Aldrich), to obtain solutions FeCl3 0.018 M and CuCl2 0.015 M. The metal content of solutions was evaluated by atomic absorption. Iron stock solution was prepared with an excess of acid chloride to avoid hydrolysis and its concentration in HCl was determined by the usual standard-addition method using 0.1M HCl (Titrisol). The 0.1M HCl solution, used in calibration of the glass electrode and in spectrophotometric titrations, was prepared from a Titrisol ampoule. The titrant was prepared from carbonate free commercial concentrate (Titrisol, KOH 0.1 M ampoules). The KOH solution was standardized by titration with a solution of potassium hydrogen phthalate using Gran’s method and it was rejected when the percentage of carbonate was greater than 0.5% of the total amount of base. The potentiometric studies were performed with an automated potentiometric apparatus controlled by PASAT program and containing a Crison micropH 2002 millivoltmeter, a Crison microBu 2031 burette and a Haake thermostatic bath (T = 25.0 ± 0.1 °C). The spectrophotometric titrations were carried out with a Perkin-Elmer Lambda 35 spectrophotometer.
(§5) Both glass and Ag/AgCl reference electrodes were previously conditioned in different DMSO/H2O mixtures of increasing DMSO % concentration and the response of the glass electrode was evaluated by strong acid–strong base (HCl/KOH) calibrations with the determination of the Nernst parameters by Gran’s method. […] The spectrophotometric measurements were carried out in a 250–450 nm wavelength range at pH ca. 2.5–11.8. Under the stated experimental conditions, the pKw value (14.27) was determined and subsequently used in the computations. The stepwise protonation constants of the ligands, Ki = [HiL]/[Hi-1L][H], and the overall metal complex stability constants, β (MmHhLl) = [MmHhLl]/[M]^m[H]^h[L]^l, were calculated by fitting the pH-potentiometric and spectrophotometric data with, respectively, the Hyperquad 2008 [41] and Psequad programs. The metal hydrolysis model was determined under the defined experimental conditions (I = 0.1 M KCl, 20% w/w DMSO/H2O, T = 25.0 ± 0.1 °C) and the following values of stability constants were included in the fitting of experimental data towards the equilibrium models related to the Fe^3+/L and Cu^2+/L systems: log β (FeH-2) = −6.78, log β (FeH-3) = −10.78; log β (Cu2H-2) = −9.94. The species distribution curves were obtained with the Hyss program.

[3] = Fe^3+ complexation, potentiometric / spectrophotometric titration; format: physicochemical; details: for log β (FemHhLl), species (101) / log β (FemHhLl), species (102): pH-potentiometric (FA), UV–Vis (1a, 1d); for pM (Fe^3+), pM = −log [M]: pH 7.4, CL/CM = 10, CM = 10^−6 M
Text: as §1, §2, §3, §4, §5

[4] = Radical scavenging activity, DPPH method; format: biochemical; details: MeOH, 30 min, r.t., mean ± SD of 3 independent experiments
Text: Commercial ferulic acid (FA) and all the newly synthesized compounds 1a–e were studied for their radical scavenging activity, following the protocol previously reported. The activity of each compound is expressed as EC50 and is related to its interaction with the free stable radical 2,2-diphenyl-1-picrylhydrazyl (DPPH•).
For the physicochemical and biological studies, analytical grade reagents and solvents were supplied by Sigma-Aldrich (St. Louis, MO, USA), Fluka (Buchs, Switzerland) and Acros (Geel, Belgium). They were used as received without any purification. The antioxidant activity assay was performed in a quartz cell of 1 cm path length with a Perkin-Elmer Lambda 35 UV–Vis spectrophotometer equipped with a temperature programmer PTP1+1 Peltier System (T = 25.0 ± 0.1 °C).
Compounds were evaluated for their radical scavenging activity by the Blois method using DPPH (2,2-diphenyl-1-picrylhydrazyl), a stable free-radical. It absorbs in methanol solution at 517–520 nm and it is a scavenger for other radicals converting itself in the reduced form DPPHH. The assay consists of preparing solutions of increasing concentration of each compound starting from a stock solution (2–3 × 10^−4 M), adding to them 2.5 mL DPPH (0.002% in MeOH, 50–100 µM) and the necessary volume of MeOH to reach the final volume 3.5 mL for each sample. The control sample was made up of DPPH and MeOH. Solutions were protected from light at r.t. for 30 min and then absorbance was measured at 517 nm with a Perkin Elmer Lambda 35 UV–Vis spectrophotometer, using methanolic solution as the blank in the other cell. All the studied compounds have good solubility in MeOH, so their solutions could be prepared. The assay was repeated three times for all compounds and the antioxidant activity, expressed as EC50, was calculated by Equation (1). %AA = ((ADPPH − Asample)/ADPPH) × 100,(1)

[5] = T = 25.0 ± 0.1 °C, I = 0.1 M KCl, 20% w/w DMSO/water, pH-potentiometric (FA)
[6] = T = 25.0 ± 0.1 °C, I = 0.1 M KCl, 20% w/w DMSO/water

predominant species neutral HL at physiological conditions [1]	melting point	log β (CumHhLl), species (1–21) ([2]; T = 25.0 ± 0.1 °C, I = 0.1 M KCl, 20% w/w DMSO/water, UV–Vis spectrophotometric data)	log β (CumHhLl), species (1–12) [2, 5]	log β (CumHhLl), species (101) [2, 5]	pM (Cu^2+), pM = −log [M] [2]	log β (FemHhLl), species (101) [3, 6]	log β (FemHhLl), species (102) [3, 6]	pM (Fe^3+), pM = −log [M] [3]	FeL in the Fe^3+/L system ([3]; pH ca. 2, species distribution)	EC50 [4]	log β (CumHhLl), species (102) ([2]; T = 25.0 ± 0.1 °C, I = 0.1 M KCl, 20% w/w DMSO/water, pH-potentiometric (FA), UV–Vis (1d))	log β (FemHhLl), species (1–22) [3, 6]	Structure (SMILES)
96%	58 °C	−13.16(7)	1.12(5)	6.27(7)	6.3	16.49(3)	23.69(4)	17.6	100%	34 ± 1 µM			COc1cc(/C=C/C(=O)NOCc2ccccc2OC)ccc1O [Compound 1a, (E)-3-(4-hydroxy-3-methoxyphenyl)-N-((2-methoxybenzyl)oxy)acrylamide]
97%	47 to 48 °C		2.20(8)	7.49(7)	7.0	15.42(7)	25.43(5)	18.2		33 ± 1 µM	12.14(7)	8.50(5)	COc1cc(/C=C/C(=O)NOCc2cccc(Cl)c2)ccc1O [Compound 1d, (E)-N-((3-chlorobenzyl)oxy)-3-(4-hydroxy-3-methoxyphenyl)acrylamide]

Source: paper PMC8512147, “Multifunctional Small Molecules as Potential Anti-Alzheimer’s Disease Agents” (Molecules, 2021)
